Residues, ends and D or L forms follow the SMILES beside them.
Tests used:
[1] = target: Delta-type opioid receptor (Rattus norvegicus, UniProt P33533); test: Inhibition of [3H]naloxone binding to rat brain homogenate Opioid receptor delta
Mu-type opioid receptor = Mu-type opioid receptor (Rattus norvegicus, UniProt P33535); test: Inhibition of [3H]naloxone binding to rat brain homogenate Opioid receptor mu
Chain of Mu-type opioid receptor (P33535 whole entry): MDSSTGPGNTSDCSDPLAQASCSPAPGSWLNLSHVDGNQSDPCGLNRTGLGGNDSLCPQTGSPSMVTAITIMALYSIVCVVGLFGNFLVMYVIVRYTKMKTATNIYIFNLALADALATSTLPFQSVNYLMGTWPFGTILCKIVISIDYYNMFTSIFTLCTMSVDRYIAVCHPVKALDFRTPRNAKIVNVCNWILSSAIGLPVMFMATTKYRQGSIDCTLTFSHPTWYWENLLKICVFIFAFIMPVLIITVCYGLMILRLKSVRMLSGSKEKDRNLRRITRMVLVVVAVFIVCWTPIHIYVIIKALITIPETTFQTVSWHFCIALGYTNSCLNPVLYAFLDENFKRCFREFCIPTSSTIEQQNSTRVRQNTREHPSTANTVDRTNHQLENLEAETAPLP

Chain of Delta-type opioid receptor (P33533 whole entry): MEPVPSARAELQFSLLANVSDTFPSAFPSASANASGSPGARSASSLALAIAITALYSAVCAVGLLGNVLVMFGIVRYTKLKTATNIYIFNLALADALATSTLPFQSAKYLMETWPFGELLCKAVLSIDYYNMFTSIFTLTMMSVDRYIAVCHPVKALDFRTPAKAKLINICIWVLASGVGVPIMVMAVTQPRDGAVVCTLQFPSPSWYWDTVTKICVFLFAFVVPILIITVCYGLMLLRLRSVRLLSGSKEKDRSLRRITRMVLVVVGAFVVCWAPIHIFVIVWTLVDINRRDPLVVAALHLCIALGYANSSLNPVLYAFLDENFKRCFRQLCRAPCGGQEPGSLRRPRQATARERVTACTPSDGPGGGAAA

Compound | Ki [1] | Ki (Mu-type opioid receptor)
CC(C)[C@H](NC(=O)[C@H](CC(=O)O)NC(=O)[C@H](Cc1ccccc1)NC(=O)[C@@H](C)NC(=O)[C@@H]1Cc2cc(O)ccc2CN1)C(=O)N[C@H](C(=O)NCC(N)=O)C(C)C | 0.0104 µM | > 10 µM
C[C@@H](NC(=O)[C@@H]1Cc2ccc(O)cc2CN1)C(=O)N[C@@H](Cc1ccccc1)C(=O)NCC(=O)N[C@@H](Cc1ccc(O)cc1)C(=O)N1CCC[C@H]1C(=O)N[C@@H](CO)C(N)=O | > 10 µM | 1.61 µM
C[C@@H](NC(=O)[C@@H]1Cc2cc(O)ccc2CN1)C(=O)N[C@@H](Cc1ccccc1)C(=O)NCC(=O)N[C@@H](Cc1ccc(O)cc1)C(=O)N1CCC[C@H]1C(=O)N[C@@H](CO)C(N)=O | > 10 µM | 0.253 µM
C[C@@H](NC(=O)[C@@H]1Cc2cc(O)ccc2CN1)C(=O)N[C@@H](Cc1ccccc1)C(=O)N[C@@H](Cc1ccccc1)C(N)=O | > 10 µM | 0.0578 µM
CC(C)[C@H](NC(=O)[C@H](CC(=O)O)NC(=O)[C@H](Cc1ccccc1)NC(=O)[C@@H](C)NC(=O)[C@@H]1Cc2ccc(O)cc2CN1)C(=O)N[C@H](C(=O)NCC(N)=O)C(C)C | 0.304 µM | > 10 µM
NC(=O)[C@H](Cc1ccccc1)NC(=O)[C@H](Cc1ccccc1)NC(=O)[C@@H]1CCCN1C(=O)[C@@H]1Cc2cc(O)ccc2CN1 | > 10 µM | 0.216 µM
C[C@@H](NC(=O)[C@@H](N)Cc1ccc(O)cc1)C(=O)N[C@@H](Cc1ccccc1)C(=O)N[C@@H](Cc1ccccc1)C(N)=O (HELM PEPTIDE1{Y.[dA].F.F.[am]}$$$$V2.0) | 1.82 µM | –
CC(C)[C@H](NC(=O)[C@H](CC(=O)O)NC(=O)[C@H](Cc1ccccc1)NC(=O)[C@@H](C)NC(=O)[C@@H](N)Cc1ccc(O)cc1)C(=O)N[C@H](C(=O)NCC(N)=O)C(C)C [DELTORPHIN C] | 0.00073 µM | 1.7 µM
C[C@@H](NC(=O)[C@@H](N)Cc1ccc(O)cc1)C(=O)N[C@@H](Cc1ccccc1)C(=O)NCC(=O)N[C@@H](Cc1ccc(O)cc1)C(=O)N1CCC[C@H]1C(=O)N[C@@H](CO)C(N)=O [DERMORPHIN] | – | 0.0024 µM

Reference: ChEMBL document CHEMBL1144431, “6-Hydroxy-1,2,3,4-tetrahydro-isoquinoline-3-carboxylic acid mimics active conformation of tyrosine in opioid peptides” (Bioorg Med Chem Lett, 2005)
